Experimental data as given in patent EP1229027A1 (priority 1996, dated 1998).

Assays:
[1] = tested on: Plasmopara viticola; settings: in vivo
[2] = tested on: Pythium ultimum; assay: Fungitoxicity against Pythium ultimum (mycelial dry weight growth in liquid asparagine-sucrose broth); assay type: cell-based; settings: Globisporangium ultimum; 100 ppm of the compound; 48 hours at 25 °C; increase in mycelial dry weight compared to controls
Description: Compounds were tested for fungitoxicity against Pythium ultimum according to the procedures set forth below.
Test compounds were dissolved in dimethylsulfoxide at 20 mg/ml and 0.1 ml was added to 19.9 ml of a liquid asparagine-sucrose broth, prepared according to the method described in Erwin, D.C., and Katznelson, K., Canadian Journal of Microbiology 7, 15 (1971), in 9 cm petri dishes to give a concentration of 100 ppm of the compound. Each plate was inoculated with a mycelial plug, 7 mm in diameter, taken from the growing edge of a culture of Pythium ultimum grown on potato dextrose agar. Two replicate plates were used for each treatment. After growth for 48 hours at 25 °C with shaking on a gyrotary shaker at 60 rpm, the increase in mycelial dry weight was determined. Fungitoxicity was recorded as percent inhibition of growth as compared to controls lacking the test compounds. 2.

[3] = tested on: Phytophthora infestans; assay type: in vivo; settings: Rate 300 ppm; tomato seedlings; evaluated 6 days after inoculation

Row | SMILES | GDM (percent disease control) [1] [%] | inhibition at 100 ppm [2] [%] | TLB (percent disease control) [3] [%]
1 | CCC(C)(NC(=O)c1ccc2nc(C)oc2c1)C(=O)CCl (stereo not shown) [Compound 2, N-(3-chloro-1-ethyl-1-methyl-2-oxopropyl)-2-methylbenzoxazole-6-carboxamide] | 100 | 92.2 | 90
2 | CCC(C)(NC(=O)c1ccc2c(c1)NC(=O)CO2)C(=O)CCl (stereo not shown) [Compound 11, N-(3-chloro-1-ethyl-1-methyl-2-oxopropyl)-1,4-benzoxazine-3-one-6-carboxamide] | 0 | 34.3 | 95
3 | CCC(C)(NC(=O)c1ccc2c(c1)NC(=O)CO2)C(=O)C(Cl)Cl (stereo not shown) [Compound 13, N-(3,3-dichloro-1-ethyl-1-methyl-2-oxopropyl)-1,4-benzoxazine-3-one-6-carboxamide] | – | 60.8 | –
